Test system: Caco-2 cells
Assay: apoA-I mediated 3H-cholesterol efflux from Caco-2 cells
Format: cell-based, human
Settings: 24 h, 10 μg/ml apoA-I, mean and SEM of quadruplicate
Procedure: To assess the relevant biological activity of the LXR agonists, certain compounds were tested for their ability to increase cholesterol efflux from cultured human cells, as described by Sparrow et al., JBC volume 277, pages 10021–10027, Mar. 22, 2002. Caco-2 cells, which are of human origin, were obtained from ATCC and grown in Opti-MEM (Gibco #51985-034) containing 10% FCS, non-essential amino acids (Gibco #11140-050), and vitamins (Gibco # 11120-052). Caco-2 cells were plated at 100,000 cells/well in 48-well plates. After four days the cells had reached confluence, and were then labeled with ^3H-cholesterol by incubation for 24 hours in fresh growth media containing ^3H-cholesterol (10 μCi/ml). Following labeling with ^3H-cholesterol, cells were washed and incubated an additional 24 hours in serum-free media containing 1 mg/ml BSA, to allow for equilibration of ^3H-cholesterol with intracellular cholesterol. Cholesterol efflux was initiated by adding 10 μg/ml apoA-I, with or without compound, in serum-free medium. Compounds were added to cell culture medium from DMSO solutions, and control cells received an equivalent amount of DMSO, never exceeding 0.1%. After 24 hours, media were harvested and cells dissolved in 0.1 M NaOH. Media were briefly centrifuged to remove non-adherent cells, and then aliquots of both the supernatants and the dissolved cells were subjected to liquid scintillation spectrometry to determine radioactivity. Cholesterol efflux is expressed as a percentage, calculated as (^3H-cholesterol in medium/(^3H-cholesterol in medium+^3H-cholesterol in cells))×100.

## CCCc1c(OCCCN2C(=O)CSC2=O)ccc2c(C(F)(F)F)noc12 [Example 16, 3-(3-{[7-propyl-3-(trifluoromethyl)-1,2-benzisoxazol-6-yl]oxy}propyl)thiazolidine-2,4-dione]
Compound concentration 1 nM
  % cholesterol efflux: 3.2 ± 0.3%
Compound concentration 10 nM
  % cholesterol efflux: 4.0 ± 0.2%
Compound concentration 100 nM
  % cholesterol efflux: 8.8 ± 0.7%
Compound concentration 1000 nM
  % cholesterol efflux: 10.3 ± 0.3%
Compound concentration 5000 nM
  % cholesterol efflux: 6.6 ± 0.4%

## CCCc1c(OCCCN2C(=O)NC(C)(c3ccccc3)C2=O)ccc2c(C(F)(F)F)noc12 (racemic) [Example 25, rac-5-methyl-5-phenyl-3-(3-{[7-propyl-3-(trifluoromethyl)-1,2-benzisoxazol-6-yl]oxy}propyl)imidazolidine-2,4-dione]
Compound concentration 1 nM
  % cholesterol efflux: 3.4 ± 0.3%
Compound concentration 10 nM
  % cholesterol efflux: 3.5 ± 0.09%
Compound concentration 100 nM
  % cholesterol efflux: 4.5 ± 0.09%
Compound concentration 1000 nM
  % cholesterol efflux: 4.6 ± 0.09%
Compound concentration 5000 nM
  % cholesterol efflux: 5.2 ± 0.2%

Source: patent US7125865B2, “Therapeutic compounds for treating dyslipidemic conditions” (Merck & Co., Inc., priority 2002, dated 2006)
